Experimental data reported in patent US9896445B2, “Heterocyclic inhibitors of ERK1 and ERK2 and their use in the treatment of cancer” (Asana Biosciences, LLC, priority 2015, dated 2018).
Where a name gives a salt, the structure may show the parent alone.

How the values were obtained:
ERK2 = target: T1, ERK2 (Homo sapiens, UniProt P28482); assay: ERK2 HTRF (biochemical) assay
T1 construct: purchased Jubilant Biosys
Procedure, shortened: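 Readout was time-resolved FRET between europium anti-phospho-MBP and streptavidin-APC after a 60-min room-temperature kinase step. That step used ERK2 (25 nM in enzyme mix), biotinylated MBP peptide (1 uM) and ATP (24 uM) from the substrate mix, in pH 7.5 Tris buffer.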

ERK1 = target: T2, ERK1 (Homo sapiens, UniProt P27361); assay: ERK1 HTRF (biochemical) assay
T2 construct: purchased Jubilant Biosys
Method: ERK1 and ERK2 HTRF (Biochemical) Assays
These assays employed a homogeneous time resolved fluorescence (HTRF) technique. […] The plate was incubated at room temperature for 60 min with shaking. […] The IC50 values (half maximal inhibitory concentration values) were subsequently determined using a sigmoidal dose-response curve (variable slope) in GraphPad Prism® 5 software.

T1 sequence (P28482 whole entry): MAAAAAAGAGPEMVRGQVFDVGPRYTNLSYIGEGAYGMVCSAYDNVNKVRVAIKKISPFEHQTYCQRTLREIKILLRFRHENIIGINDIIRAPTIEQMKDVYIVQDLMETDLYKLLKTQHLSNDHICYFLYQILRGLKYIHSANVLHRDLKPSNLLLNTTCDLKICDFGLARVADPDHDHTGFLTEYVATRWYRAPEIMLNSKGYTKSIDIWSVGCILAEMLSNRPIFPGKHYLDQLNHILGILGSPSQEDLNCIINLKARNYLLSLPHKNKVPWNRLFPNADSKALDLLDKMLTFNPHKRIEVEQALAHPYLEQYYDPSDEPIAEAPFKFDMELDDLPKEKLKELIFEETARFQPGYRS
T2 sequence (P27361 whole entry): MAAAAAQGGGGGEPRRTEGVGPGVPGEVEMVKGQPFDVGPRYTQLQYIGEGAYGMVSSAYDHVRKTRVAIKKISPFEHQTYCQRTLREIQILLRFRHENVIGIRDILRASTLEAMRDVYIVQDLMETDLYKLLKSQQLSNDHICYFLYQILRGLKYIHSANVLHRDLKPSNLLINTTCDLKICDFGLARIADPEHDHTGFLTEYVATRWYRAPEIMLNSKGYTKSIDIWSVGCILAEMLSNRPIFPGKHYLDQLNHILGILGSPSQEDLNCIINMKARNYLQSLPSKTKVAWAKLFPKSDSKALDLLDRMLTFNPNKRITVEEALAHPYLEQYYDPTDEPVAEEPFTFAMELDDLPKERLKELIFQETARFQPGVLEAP

Compound | IC50 (ERK2; HTRF) | IC50 (ERK1; HTRF) | IC50 (ERK2; HTRF biochemical assay) | IC50 (ERK1; HTRF biochemical assay)
O=C(N[C@H](CO)c1cccc(Cl)c1)c1cn(-c2ccnc(NC3CCOC3)c2)cn1 (stereo partly drawn) [Compound 170, N-((S)-1-(3-chlorophenyl)-2-hydroxyethyl)-1-(2-((tetrahydrofuran-3-yl)amino)pyridin-4-yl)-1H-imidazole-4-carboxamide] | ≤ 50 nM | < 50 nM |  | 
Cc1cnc(NC2CCOC2)nc1-n1ccc(C(=O)N[C@H](CO)c2ccc(F)c(Cl)c2)c1 (stereo partly drawn) [Compound 157, N-((S)-1-(3-chloro-4-fluorophenyl)-2-hydroxyethyl)-1-(5-methyl-2-((tetrahydrofuran-3-yl)amino)pyrimidin-4-yl)-1H-pyrrole-3-carboxamide] | ≤ 50 nM | < 50 nM |  | 
Cc1cnc(NC2CCNCC2)nc1-n1cnc(C(=O)NC(CO)c2cccc(Cl)c2)c1 (centres unmarked) [Compound 214, N-(1-(3-chlorophenyl)-2-hydroxyethyl)-1-(5-methyl-2-(piperidin-4-ylamino)pyrimidin-4-yl)-1H-imidazole-4-carboxamide] | ≤ 50 nM | < 50 nM |  | 
Cc1cnc(Nc2ccnn2C)nc1-n1cnc(C(=O)N[C@H](CO)c2cccc(Cl)c2)c1 [Example 277, (S)-N-(1-(3-chlorophenyl)-2-hydroxyethyl)-1-(5-methyl-2-((1-methyl-1H-pyrazol-5-yl)amino)-pyrimidin-4-yl)-1H-imidazole-4-carboxamide] | ≤ 50 nM | < 50 nM |  | 
Cc1cnc(Nc2ccc3[nH]cc(C4=CCNCC4)c3c2)nc1-n1ccc(C(=O)NC(CO)c2cccc(Cl)c2)c1 (centres unmarked) [Compound 209, N-(1-(3-chlorophenyl)-2-hydroxyethyl)-1-(5-methyl-2-((3-(1,2,3,6-tetrahydro-pyridin-4-yl)-1H-indol-5-yl)amino)-pyrimidin-4-yl)-1H-pyrrole-3-carboxamide hydrochloride] | ≤ 50 nM | < 50 nM |  | 
Cc1cnc(Nc2ccc(F)cc2Cl)nc1-n1cc(C(=O)N[C@H](CO)c2cccc(Cl)c2)cn1 [Compound 35, (S)-1-(2-((2-chloro-4-fluoro-phenyl)amino)-5-methylpyrimidin-4-yl)-N-(1-(3-chloro-phenyl)-2-hydroxy-ethyl)-1H-pyrazole-4-carboxamide] | ≤ 50 nM | < 50 nM |  | 
Cc1cnc(N[C@H]2CCOC2)nc1-n1cnc(C(=O)NCc2cccc(Cl)c2)c1 [Example 318, (S)-N-(3-chloro-benzyl)-1-(5-methyl-2-((tetrahydrofuran-3-yl)amino)-pyrimidin-4-yl)-1H-imidazole-4-carboxamide] |  |  | ≤ 50 nM | < 50 nM
O=C(NC(CO)c1ccccc1)c1ccn(-c2nc(Nc3ccccc3Cl)ncc2F)c1 (centres unmarked) [Compound 67, 1-(2-((2-chloro-phenyl)amino)-5-fluoropyrimidin-4-yl)-N-(2-hydroxy-1-phenylethyl)-1H-pyrrole-3-carboxamide] | ≤ 50 nM | < 50 nM |  | 
Cc1cnc(NC2CCOCC2)nc1-n1cnc(C(=O)N[C@H](CNCCO)c2cccc(Cl)c2)c1 [Example 333, (S)-N-(1-(3-chlorophenyl)-2-((2-hydroxyethyl)amino)ethyl)-1-(5-methyl-2-((tetrahydro-2H-pyran-4-yl)amino)-pyrimidin-4-yl)-1H-imidazole-4-carboxamide] |  |  | ≤ 50 nM | < 50 nM
O=C(Nc1cnn(-c2ccnc(Nc3ccccc3)n2)c1)N[C@H](CO)c1cccc(Cl)c1 [Compound 12, (S)-1-(1-(3-chlorophenyl)-2-hydroxyethyl)-3-(1-(2-(phenyl-amino)pyrimidin-4-yl)-1H-pyrazol-4-yl)urea] | ≤ 50 nM | < 50 nM |  | 
CNC[C@@H](NC(=O)c1cn(-c2nc(NC3CCOCC3)ncc2C)cn1)c1cccc(Cl)c1 [Example 326, (S)-N-(1-(3-chlorophenyl)-2-(methylamino)ethyl)-1-(5-methyl-2-((tetrahydro-2H-pyran-4-yl)amino)-pyrimidin-4-yl)-1H-imidazole-4-carboxamide] |  |  | ≤ 50 nM | < 50 nM
Cc1cnc(Nc2ccc(Oc3ccccc3)cc2)nc1-n1cnc(C(=O)NC(CN)c2cccc(Cl)c2)c1 (centres unmarked) [Compound 231, N-(2-amino-1-(3-chlorophenyl)ethyl)-1-(5-methyl-2-((4-phenoxyphenyl)amino)pyrimidin-4-yl)-1H-imidazole-4-carboxamide] | ≤ 50 nM | < 50 nM |  | 
Cc1cnc(Nc2ccc3c(c2)OC(F)(F)O3)cc1-n1cnc(C(=O)NC(CN)Cc2ccccc2)c1 (centres unmarked) [Compound 99, N-(1-amino-3-phenylpropan-2-yl)-1-(2-((2,2-difluorobenzo[d] [1,3]dioxol-5-yl)amino)-5-methylpyridin-4-yl)-1H-imidazole-4-carboxamide] | 100 to 500 nM | 100 to 500 nM |  | 
Cc1cnc(Nc2ccc3occc3c2)nc1-n1cnc(C(=O)NC(CO)c2cccc(Cl)c2)c1 (centres unmarked) [Compound 132, 1-(2-(benzofuran-5-ylamino)-5-methylpyrimidin-4-yl)-N-(1-(3-chlorophenyl)-2-hydroxyethyl)-1H-imidazole-4-carboxamide] | ≤ 50 nM | < 50 nM |  | 
Cc1cn(-c2nc(Nc3ccc(F)cc3)ncc2C)cc1C(=O)NC(CO)c1cccc(Cl)c1 (centres unmarked) [Compound 107, N-(1-(3-chlorophenyl)-2-hydroxyethyl)-1-(2-((4-fluoro-phenyl)amino)-5-methylpyrimidin-4-yl)-4-methyl-1H-pyrrole-3-carboxamide] | ≤ 50 nM | < 50 nM |  | 
Cc1cnc(Nc2cccc(N3CCOCC3)c2)nc1-n1cnc(C(=O)N[C@H](CN)c2cccc(Cl)c2)c1 [Example 272, (S)-N-(2-amino-1-(3-chlorophenyl)ethyl)-1-(5-methyl-2-((3-morpholino-phenyl)amino)pyrimidin-4-yl)-1H-imidazole-4-carboxamide] | ≤ 50 nM | < 50 nM |  | 
Cc1cnc(Nc2ccc(F)cc2Cl)nc1-n1cc(C(=O)NC(CO)c2cccc(Cl)c2)cn1 (centres unmarked) [Compound 45, 1-(2-((2-chloro-4-fluorophenyl)amino)-5-methyl-pyrimidin-4-yl)-N-(1-(3-chlorophenyl)-2-hydroxyethyl)-1H-pyrazole-4-carboxamide] | ≤ 50 nM | < 50 nM |  | 
Cc1cnc(NC2CCOC2)nc1-n1cnc(C(=O)NC(CN)c2cccc(Cl)c2)c1 (centres unmarked) [Compound 235, N-(2-amino-1-(3-chlorophenyl)ethyl)-1-(5-methyl-2-((tetrahydrofuran-3-yl)amino)pyrimidin-4-yl)-1H-imidazole-4-carboxamide] | ≤ 50 nM | < 50 nM |  | 
Cc1cnc(N[C@H]2CCOC2)nc1-n1cnc(C(=O)N[C@H](CN)c2cccc(Cl)c2)c1 [Example 255, N-((S)-2-amino-1-(3-chlorophenyl)-ethyl)-1-(5-methyl-2-(((S)-tetrahydro-furan-3-yl)amino)-pyrimidin-4-yl)-1H-imidazole-4-carboxamide] | ≤ 50 nM | < 50 nM |  | 
Cc1cnc(Nc2ccc(F)cc2)nc1-n1ccc(C(=O)N[C@H](CO)c2ccc(F)c(Cl)c2)c1 [Compound 125, (S)-N-(1-(3-chloro-4-fluorophenyl)-2-hydroxyethyl)-1-(2-((4-fluorophenyl)-amino)-5-methyl-pyrimidin-4-yl)-1H-pyrrole-3-carboxamide] | ≤ 50 nM | < 50 nM |  | 
Cc1cnc(Nc2ccc(N3CCOCC3)cc2)nc1-n1ccc(C(=O)NC(CO)c2cccc(Cl)c2)c1 (centres unmarked) [Compound 205, N-(1-(3-chlorophenyl)-2-hydroxyethyl)-1-(5-methyl-2-((4-morpholinophenyl)amino)pyrimidin-4-yl)-1H-pyrrole-3-carboxamide] | ≤ 50 nM | < 50 nM |  | 
Cc1cnc(NC2CCOCC2)nc1-n1cnc(C(=O)NC(CO)c2cccc(C(C)(C)C)c2)c1 (centres unmarked) [Example 258, N-(1-(3-(tert-butyl)phenyl)-2-hydroxyethyl)-1-(5-methyl-2-((tetrahydro-2H-pyran-4-yl)amino)-pyrimidin-4-yl)-1H-imidazole-4-carboxamide] | ≤ 50 nM | < 50 nM |  | 
Cc1cnc(N[C@H]2CCOC2)nc1-n1ccc(C(=O)N(C)C(CO)c2cccc(Cl)c2)c1 (stereo partly drawn) [Compound 212, N-(1-(3-chlorophenyl)-2-hydroxyethyl)-N-methyl-1-(5-methyl-2-(((S)-tetrahydrofuran-3-yl)amino)-pyrimidin-4-yl)-1H-pyrrole-3-carboxamide] | ≤ 50 nM | < 50 nM |  | 
Cc1cnc(Nc2ccc3c(c2)OCO3)nc1-n1ccc(C(=O)NC(CO)c2ccccc2)c1 (centres unmarked) [Compound 47, 1-(2-(benzo[d][1,3]dioxol-5-ylamino)-5-methylpyrimidin-4-yl)-N-(2-hydroxy-1-phenylethyl)-1H-pyrrole-3-carboxamide] | ≤ 50 nM | < 50 nM |  | 
Cc1cnc(Nc2ccc(F)cc2Cl)nc1-n1ccc(C(=O)N[C@H](CO)c2cccc(Cl)c2)c1 [Compound 57, (S)-1-(2-((2-chloro-4-fluorophenyl)-amino)-5-methyl-pyrimidin-4-yl)-N-(1-(3-chlorophenyl)-2-hydroxyethyl)-1H-pyrrole-3-carboxamide] | ≤ 50 nM | < 50 nM |  | 
Cc1cnc(Nc2ccccc2Cl)nc1-n1cc(NC(=O)N[C@H](CO)c2cccc(Cl)c2)cn1 [Compound 2] | 50 to 100 nM | < 50 nM |  | 
Cc1cnc(NC2CCOC2)nc1-n1ccc(C(=O)NC(CO)c2cccc(Cl)c2)c1 (centres unmarked) [Compound 123, N-(1-(3-chlorophenyl)-2-hydroxyethyl)-1-(5-methyl-2-((tetrahydrofuran-3-yl)amino)pyrimidin-4-yl)-1H-pyrrole-3-carboxamide] | ≤ 50 nM | < 50 nM |  | 
Cc1cnc(Nc2ccc(F)cc2)nc1-n1ccc(C(=O)NC(CO)c2ccccc2)c1 (centres unmarked) [Compound 114, 1-(2-((4-fluoro-phenyl)amino)-5-methylpyrimidin-4-yl)-N-(2-hydroxy-1-phenylethyl)-1H-pyrrole-3-carboxamide] | ≤ 50 nM | < 50 nM |  | 
